A value given as a limit tells only on which side of the number the result lay.

We go through one molecule from patent US6417187B2, “1,2,4-triazole based compounds that can be used as insecticides or acaricides and processes” (Dow AgroSciences LLC, priority 2000, dated 2002).

Common to all, as to format: in vivo
Assay [1] has as its system two-spotted spider mite (Tetranychus urticae). In words: Insecticidal test for two-spotted spider mite, ovicide method. To be noted: Tetranychus urticae, in Gossypium hirsutum, foliar, 144 h, read-out: SM: activity at 2.5 ppm against two-spotted spider mite (% Control rating).
Assay [2] has as its system beet armyworm (Spodoptera exigua). In words: Insecticidal test for beet armyworm (treated lepidopteran diet). To be noted: Spodoptera exigua, 120 h; 400 ppm, treated diet, second-instar larvae, 5 days; read-out: BAW: activity at 400 ppm against beet armyworm (% Control rating).
For assay [3], the system named is Brown Planthopper (Nilaparvata lugens). The experiment in a line: Insecticidal test for Brown Planthopper (rice seedling roots in test solution). To be noted: 10 ppm test solution, rice seedling roots, 3rd instar nymphs, mortality at 6 days.
Assay [4] deals with Sweetpotato Whitefly (Bemisia tabacia). The experiment in a line: Insecticidal test for Sweetpotato Whitefly (cotton plant spray). The conditions noted are these: Bemisia, 312 h; 200 ppm spray on cotton plants, 13 days, reduction of large nymphs; read-out: WF: activity at 200 ppm against whitefly (% Control rating).
For assay [5], the system named is Green Leafhopper (Nephotettix cincticeps). In words: Insecticidal test for Green Leafhopper (rice seedling roots in test solution). To be noted: 10 ppm test solution, rice seedling roots, 3rd instar nymphs, mortality at 6 days.
Assay [6] concerns cabbage looper (Trichoplusia ni). In words: Insecticidal test for cabbage looper (cabbage leaf-disc dip). The conditions noted are these: Trichoplusia ni, 120 h; 400 ppm, cabbage leaf-dip, 2nd instar larvae, 5 days; read-out: CL: activity at 400 ppm against cabbage looper (% Control rating).
Assay [7] concerns cotton aphid (Aphis gossvpii). In words: Insecticidal test for cotton aphid (squash cotyledon spray). The conditions noted are these: 72 h; 50 ppm spray on infested squash cotyledons, 3 days, population reduction versus untreated; read-out: CA: activity at 50 ppm against cotton aphid (% Control rating).
The subject of assay [8] is tobacco budworm (Heliothis virescens). In words: Insecticidal test for tobacco budworm (cotton cotyledon leaf-disc dip). To be noted: Heliothis virescens, 120 h; 400 ppm, cotton cotyledon leaf-dip, 2nd instar larvae, 5 days; read-out: TBW: activity at 400 ppm against tobacco budworm (% Control rating).

Consider `Cn1nc(-c2c(F)cccc2Cl)nc1-c1sc(C#C[Si](C)(C)C)c(Cl)c1Cl` [Compound 1, 1-Methyl-3-(2-chloro-6-fluorophenyl)-5-(3,4-dichloro-5-(2-trimethylsilyl-ethynyl)-thien-2-yl) [1 2,4]triazole], for which, in assay [1], the pest or weed control at 2.5 ppm lay within 80 to 89%. Further, the pest or weed control at 400 ppm in assay [2], in assay [6] and in assay [8] was 90 to 100% throughout. The “BPH: activity at 10 ppm against brown planthopper (% Control rating)” value in assay [3] is recorded as “F (less than 50)”. The pest or weed control at 200 ppm in assay [4] is under 50%. For the same molecule, the “GLH: activity at 10 ppm against green leafbopper (% Control rating)” value in assay [5] is “B (80-89)”. Besides, in assay [7], the pest or weed control at 50 ppm lay within 50 to 59%.
